What was measured:
[1] = system: neuronal heteromeric receptors; assay: Activation of neuronal heteromeric nAChR (panel); format: cell-based, human; conditions: all heteromeric subtypes tested
Text: Concatamers were used in order to obtain heteromeric receptors with known subunit composition. The β2-6-α4 concatamer was co-expressed with monomeric α4, β2, or α5 to obtain receptors with the composition α4(3)β2(2), α4(2)β2(3), or α4(2)β2(2)α5, respectively. A concatamer of five linked subunits was used to obtain the β3α4 β2α6β2 receptors. The α3β4 receptors were formed from the co-expression of α3 and β4 subunit monomers at equal ratios. Note that the data were initially measured relative to internal ACh control responses for each oocyte (Methods). Responses were subsequently adjusted for the relative values of the ACh controls and the ACh maximum responses for each of the various subtypes, determined in previous experiments. […]
(§1) Solutions were applied from 96-well plates via disposable tips. […] The responses were calculated as both peak current amplitudes and net charge, as previously described. Data were collected at 50 Hz, filtered at 20 Hz for α7 receptors or filtered at 5 Hz for heteromeric nAChR, and analyzed by Clampfit (Molecular Devices, San Jose, CA, USA) and Excel (Microsoft, Redmond, WA, USA). Data were expressed as means ± SEM from at least four oocytes for each experiment and plotted with Kaleidagraph 4.5.2 (Abelbeck Software, Reading, PA, USA). Multi-cell averages were calculated for comparisons of complex responses. […]

[2] = molecular target: T1, α4(2)β2(2)β2L15’M receptors (Homo sapiens, UniProt P17787+P43681, L280M); assay: Silent agonism of the TQS-sensitive α4β2L15’M mutant receptor; format: cell-based
T1 construct: expressed in transfected cells; host or cells: Xenopus laevis oocytes (injected RNA)
T1 sequence (P17787 26-502, stated change not applied): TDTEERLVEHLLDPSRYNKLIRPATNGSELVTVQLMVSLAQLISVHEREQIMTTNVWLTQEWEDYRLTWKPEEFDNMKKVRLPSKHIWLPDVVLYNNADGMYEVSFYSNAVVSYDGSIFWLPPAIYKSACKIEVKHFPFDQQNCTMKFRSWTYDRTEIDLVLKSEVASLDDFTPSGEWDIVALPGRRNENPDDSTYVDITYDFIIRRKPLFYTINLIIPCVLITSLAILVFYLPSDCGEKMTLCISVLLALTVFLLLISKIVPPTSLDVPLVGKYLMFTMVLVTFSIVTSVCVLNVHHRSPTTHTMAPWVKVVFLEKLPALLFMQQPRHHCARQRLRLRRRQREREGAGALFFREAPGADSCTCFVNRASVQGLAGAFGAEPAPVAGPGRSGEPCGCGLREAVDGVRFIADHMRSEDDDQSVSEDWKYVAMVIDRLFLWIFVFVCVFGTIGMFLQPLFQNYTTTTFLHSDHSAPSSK
T1 sequence (P43681 27-627): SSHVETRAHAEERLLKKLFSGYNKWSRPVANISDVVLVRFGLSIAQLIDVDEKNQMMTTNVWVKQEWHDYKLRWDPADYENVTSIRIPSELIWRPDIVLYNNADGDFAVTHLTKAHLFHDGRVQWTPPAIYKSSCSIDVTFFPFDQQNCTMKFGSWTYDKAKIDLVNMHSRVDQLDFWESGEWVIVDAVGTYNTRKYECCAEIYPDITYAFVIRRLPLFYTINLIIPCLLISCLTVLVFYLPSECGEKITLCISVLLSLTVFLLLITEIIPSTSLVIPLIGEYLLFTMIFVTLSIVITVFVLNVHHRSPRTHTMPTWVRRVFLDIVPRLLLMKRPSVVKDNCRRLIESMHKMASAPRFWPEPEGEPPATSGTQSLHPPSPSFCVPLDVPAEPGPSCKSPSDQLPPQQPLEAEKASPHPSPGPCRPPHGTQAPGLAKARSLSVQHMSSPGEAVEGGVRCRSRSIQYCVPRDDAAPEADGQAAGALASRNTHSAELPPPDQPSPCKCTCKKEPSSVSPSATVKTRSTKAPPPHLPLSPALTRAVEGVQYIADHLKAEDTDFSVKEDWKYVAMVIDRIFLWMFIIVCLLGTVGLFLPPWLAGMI
T1 sequence (P17787 26-502 L280M): as the sequence (P17787 26-502, stated change not applied) above, with L255M counted along it
Experimental: We conducted a screen of the other sulfonium compounds on the α4β2L15’M receptors and identified at least two compounds that gave potentiated responses above our limit of detection indicated by the dotted line in Figure 8B.
Figure 8 Silent agonism of an α4β2 mutant receptor that is sensitive to the α7 PAM TQS. (A) The averaged raw data of responses of eight oocytes expressing the β2-6-α4 concatamer and the β2L15’M mutant to 100 µM of the sulfonium agonist S1, applied alone or co-applied with 30 µM racemic TQS. […] (B) Evaluation of the effects of the sulfonium compounds, applied alone at 100 µM or co-applied with 30 µM TQS to α4(2)β2(2)β2L15’M receptors. […]
as §1

[3] = system: α4β2 subtypes formed with concatamers; assay: Inhibition of ACh control peak-current responses of α4-containing nAChR formed with concatamers; format: cell-based, human; conditions: 100 µM compound, Figure 7B
Experimental: Although none of the other sulfonium compounds activated neuronal heteromeric receptors, several of them produced inhibition of ACh-evoked responses. Shown in Figure 7A are concentration-response studies for the compounds that were active antagonists of α3β4 nAChR (Table 3). Some compounds were also tested as antagonists of α4β2 subtypes formed with concatamers (Figure 7B).
Figure 7 Inhibition of heteromeric nAChR by sulfonium compounds. (A) Inhibition of α3β4 100 µM ACh-evoked peak currents by the co-application of the sulfonium compounds. Data are the averaged of six to eight oocytes (±SEM). […]
Solutions were applied from 96-well plates via disposable tips. […] The responses were calculated as both peak current amplitudes and net charge, as previously described. Data were collected at 50 Hz, filtered at 20 Hz for α7 receptors or filtered at 5 Hz for heteromeric nAChR, and analyzed by Clampfit (Molecular Devices, San Jose, CA, USA) and Excel (Microsoft, Redmond, WA, USA). Data were expressed as means ± SEM from at least four oocytes for each experiment and plotted with Kaleidagraph 4.5.2 (Abelbeck Software, Reading, PA, USA). Multi-cell averages were calculated for comparisons of complex responses. Averages of the normalized data were calculated for each of the 10,322 points in each of the 206.44 s traces (acquired at 50 Hz), as well as the standard errors for those averages.

Structure (SMILES): C[S+](C)C.[I-] [Compound S1, trimethylsulfonium iodide]
- activation of neuronal heteromeric receptors [1]: activates all the neuronal heteromeric receptors tested
- activation of α4β2L15’M mutant receptors ([2]; 100 µM applied alone): activated the α4β2L15’M mutant receptors
- response on co-application with TQS ([2]; 100 µM compound with 30 µM TQS, limit of detection 20 nA): potentiated by TQS

Structure (SMILES): C[S+](C)c1cc([N+](=O)[O-])ccc1O.[Br-] [Compound S10, (2-hydroxy-5-nitrophenyl)dimethylsulfonium bromide]
- relative antagonist activity [3]: least
